Patent US12522877B2, “Early detection of drug-resistant mycobacterium tuberculosis” (The Translational Genomics Research Institute, priority 2020, dated 2026)
“Also recorded” adds a separate entry of the source.

Key:
M. tuberculosis isolates [1] = tested on: M. tuberculosis isolates; set-up: species or system Mycobacterium tuberculosis
M. tuberculosis isolates [2] = assay type: cell-based, Mycobacterium tuberculosis
M. tuberculosis isolates [3] = assay type: cell-based, Mycobacterium tuberculosis; remark: listed apart in the source

Compound | GenoType MTBDRplus (M. tuberculosis isolates [1]) | Genotype MTBDRplus result (M. tuberculosis isolates [1]) | patients phenotypically and genotypically resistant to bedaquiline (M. tuberculosis isolates [2]) | Phenotypic susceptibility to bedaquiline (M. tuberculosis isolates [3])
NNC(=O)c1ccncc1 [Isoniazid] | R | low-level isoniazid resistance | – | –
CO[C@H]1/C=C/O[C@@]2(C)Oc3c(C)c(O)c4c(O)c(c(/C=N/N5CCN(C)CC5)c(O)c4c3C2=O)NC(=O)/C(C)=C\C=C\[C@H](C)[C@H](O)[C@@H](C)[C@@H](O)[C@@H](C)[C@H](OC(C)=O)[C@@H]1C [Rifampicin] | R | – | – | –
COc1nc2ccc(Br)cc2cc1[C@@H](c1ccccc1)[C@@](O)(CCN(C)C)c1cccc2ccccc12 [bedaquiline] | – | – | 47% | phenotypically susceptible; also recorded: phenotypically resistant
